Test results: patent US20260327225A1, “HETEROCYCLIC COMPOUNDS AS TRIGGERING RECEPTOR EXPRESSED ON MYELOID CELLS 2 AGONISTS AND METHODS OF USE” (VIGIL NEUROSCIENCE, INC., priority 2023, published 2026)

target: T1, human TREM2 (Homo sapiens, UniProt Q9NZC2); experiment: TREM2 agonist potency by cellular phosphorylation of Syk (AlphaLisa) in HEK293T-hTREM2 cells expressing human TREM2 and DAP12; type: cell-based; settings: not given
T1 construct: expressed in transfected cells; host or cells: HEK293T-hTREM2 cells (HEK cell line expressing human TREM2 and DAP12)
T1 sequence (Q9NZC2 19-230): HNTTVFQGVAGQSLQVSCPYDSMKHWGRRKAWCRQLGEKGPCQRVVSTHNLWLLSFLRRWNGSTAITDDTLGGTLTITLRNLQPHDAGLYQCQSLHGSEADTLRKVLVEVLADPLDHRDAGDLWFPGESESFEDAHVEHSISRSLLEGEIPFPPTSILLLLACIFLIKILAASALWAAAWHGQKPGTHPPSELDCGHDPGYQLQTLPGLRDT
T1 sequence (O43914 22-113 partner): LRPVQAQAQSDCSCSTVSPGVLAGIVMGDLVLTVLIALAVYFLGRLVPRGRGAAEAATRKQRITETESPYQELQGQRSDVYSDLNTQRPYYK
Procedure: In vitro Measurement of Triggering Receptor Expressed on Myeloid Cells 2 activity using cellular phosphorylation of Spleen Tyrosine Kinase (“Syk”) Assays
Measurement of TREM2 agonist potency was done using a HEK cell line expressing human TREM2 and DAP12 (HEK293T-hTREM2 cells). Binding of small molecules to, and activation of, TREM2 increases the phosphorylation of Syk. The resultant levels of Syk phosphorylation are measured using a commercial AlphaLisa reagent kit. To perform the assay, HEK-hTREM2 cells were plated at 14,000 cells per well in a 384 well plate, in 25 μL of complete growth media and incubated at 37° C., 5% CO2 for 20-24 hours.
Prior to the assay, test compounds were diluted in the 384 well plates in assay buffer and allowed to equilibrate for 30 minutes. Growth media was removed from cell plates by inversion on blotting paper, and 25 μL of test articles in assay buffer was added to cells. Cells were incubated for 45 minutes at room temperature. After 45 minutes, assay buffer was removed and 10 μL of lysis buffer was added. Plates were shaken for 20 minutes at 350 RPM at room temperature. After complete lysis, AlphaLisa reagents were added to the lysate, and fluourescence intensity was measured using a Perkin Elmer Envision plate reader. Intensities were used to generate a standard curve, and % activation was calculated. Curve fitting was performed using Prism v9 software, log(agonist) vs response—variable slope (four parameters), and EC50s were calculated from the curve fit.
The results presented in Table B have been generated with the in vitro assay described above. This assay may be used to test any of the compounds described herein to assess and characterize a compound's ability to act as an agonist of TREM2.

Row | EC50 | Structure (SMILES)
1 | < 100 nM | Cc1cc2c(-c3ccccc3)nc(N3C[C@@H](C)O[C@@H](c4cnn(C5CC5)c4)C3)nc2nc1C [Example 68, (2S,6R)-2-(1-cyclopropylpyrazol-4-yl)-4-(6,7-dimethyl-4-phenylpyrido[2,3-d]pyrimidin-2-yl)-6-methyl-morpholine]

same assay, conditions: HEK293 cells expressing hTREM2 and DAP12; 45 minutes at room temperature; Syk phosphorylation, AlphaLisa; read-out: hTREM2 EC50

Row | EC50 | Structure (SMILES)
2 | > 500 nM | Cc1nc2nc(C3CCOC(c4cnn5c4CCCC5)C3)nc(C34CC(C(F)(F)F)(C3)C4)c2nc1C (stereo not drawn) [Example 123, 6,7-dimethyl-2-[2-(4,5,6,7-tetrahydropyrazolo[1,5-a]pyridin-3-yl)tetrahydropyran-4-yl]-4-[3-(trifluoromethyl)-1-bicyclo[1.1.1]pentanyl]pteridine]
3 | < 100 nM | CO/N=C(\C)c1cc2c(-c3ccc(F)cc3F)nc(N3C[C@@H](C)O[C@@H](c4cnn(C5CC5)c4)C3)nc2nc1C [Example 5, 1-[2-[(2S,6R)-2-(1-cyclopropylpyrazol-4-yl)-6-methyl-morpholin-4-yl]-4-(2,4-difluorophenyl)-7-methyl-pyrido[2,3-d]pyrimidin-6-yl]-N-methoxy-ethanimine]
4 | < 100 nM | Cc1nc2nc(N3C[C@@H](C)O[C@@H](c4cnn(C5CC5)c4)C3)nc(C34CC(C(F)F)(C3)C4)c2cc1C#N [Example 73, 2-((2S,6R)-2-(1-cyclopropyl-1H-pyrazol-4-yl)-6-methylmorpholino)-4-(3-(difluoromethyl)bicyclo[1.1.1]pentan-1-yl)-7-methylpyrido[2,3-d]pyrimidine-6-carbonitrile]
5 | 100 to 500 nM | Cc1nc2nc([C@H]3CCO[C@@H](c4cnn(C5CC5)c4)C3)nc(C34CC(C(F)(F)F)(C3)C4)c2cc1-c1ccn(C)n1 [Example 27, 2-((2R,4S)-2-(1-cyclopropyl-1H-pyrazol-4-yl)tetrahydro-2H-pyran-4-yl)-7-methyl-6-(1-methyl-1H-pyrazol-3-yl)-4-(3-(trifluoromethyl)-bicyclo[1.1.1]pentan-1-yl)pyrido[2,3-d]pyrimidine]
6 | 100 to 500 nM | CO[C@H]1CN(c2nc(-c3ccc(F)cc3F)c3nc(C)c(C)nc3n2)C[C@@H]1c1cn(C2CC2)nn1 (stereo in doubt) [Example 134, 2-[3-(1-cyclopropyl-triazol-4-yl)-4-methoxy-pyrrolidin-1-yl]-4-(2,4-difluorophenyl)-6,7-dimethyl-pteridine formic acid]
7 | < 100 nM | Cc1nc2nc(C3CCOC(c4ccc5ncn(C)c5c4)C3)nc(-c3ccc(F)cc3F)c2nc1C (stereo not drawn) [Example 98, 4-(2,4-difluorophenyl)-6,7-dimethyl-2-[2-(3-methylbenzimidazol-5-yl)tetrahydropyran-4-yl]pteridine]
8 | < 100 nM | Cc1nc2nc([C@H]3CCO[C@@H](c4cnn(C5CC5)c4)C3)nc(C34C5C6C7C5C3C7C64)c2nc1C (stereo partly drawn) [Example 140, 2-((2R,4S)-2-(1-cyclopropyl-1H-pyrazol-4-yl)tetrahydro-2H-pyran-4-yl)-6,7-dimethyl-4-(cuban-1-yl)pteridine]
9 | > 500 nM | Cc1noc(-c2cc3c(-c4ccc(F)cc4F)nc(N4CCCC(N5CCOCC5)C4)nc3nc2C)n1 (stereo not drawn) [Example 15, 4-[1-[4-(2,4-difluorophenyl)-7-methyl-6-(3-methyl-1,2,4-oxadiazol-5-yl)pyrido[2,3-d]pyrimidin-2-yl]-3-piperidyl]morpholine]
10 | < 100 nM | Cc1nc2nc(N3C[C@@H](C)O[C@@H](c4cnn(C5CC5)c4)C3)nc(C3CCCC3)c2cc1C#N [Example 72, 4-cyclopentyl-2-[(2S,6R)-2-(1-cyclopropyl-pyrazol-4-yl)-6-methyl-morpholin-4-yl]-7-methyl-pyrido[2,3-d]pyrimidine-6-carbonitrile]
11 | < 100 nM | Cc1nc2nc(N3C[C@@H](C)O[C@@H](c4ccn5nccc5c4)C3)nc(C34CC(C(F)(F)F)(C3)C4)c2nc1C [Example 111, (2R,6S)-4-[6,7-dimethyl-4-[3-(trifluoromethyl)-1-bicyclo[1.1.1]pentanyl]pteridin-2-yl]-2-methyl-6-pyrazolo[1,5-a]pyridin-5-yl-morpholine]
12 | < 100 nM | Cc1cc([C@H]2CN(c3nc(C4CCCCC4)c4cc(C#N)c(C)nc4n3)CCO2)cnn1 [Example 46, 4-cyclohexyl-7-methyl-2-[2-(6-methyl-pyridazin-4-yl)morpholin-4-yl]-pyrido[2,3-d]pyrimidine-6-carbonitrile]
13 | < 100 nM | Cc1noc(-c2cc3c(C4CCCCC4)nc(N4C[C@@H](C)O[C@@H](c5cnn(C6CC6)c5)C4)nc3nc2C)n1 [Example 33, (2S,6R)-4-[4-cyclohexyl-7-methyl-6-(3-methyl-1,2,4-oxadiazol-5-yl)-pyrido[2,3-d]pyrimidin-2-yl]-2-(1-cyclopropylpyrazol-4-yl)-6-methyl-morpholine]
14 | > 500 nM | Cc1nc2nc([C@H]3CCO[C@@H](c4cnn(C5CC5)c4)C3)nc(-c3ccc(F)cc3F)c2cc1C(=O)O [Example 9, 4-(2,4-difluorophenyl)-7-methyl-2-[(2R,4S)-2-(1-cyclopropylpyrazol-4-yl)tetrahydropyran-4-yl]pyrido[2,3-d]pyrimidine-6-carboxylic acid]
15 | < 100 nM | Cc1nc2nc(N3C[C@@H](C)O[C@@H](c4cnn(C5CC5)c4)C3)nc(C34CC(C(F)(F)F)(C3)C4)c2cc1C(F)(F)F [Example 74, (2S,6R)-2-(1-cyclopropyl-1H-pyrazol-4-yl)-6-methyl-4-(7-methyl-6-(trifluoromethyl)-4-(3-(trifluoromethyl)-bicyclo[1.1.1]pentan-1-yl)pyrido[2,3-d]pyrimidin-2-yl)morpholine]
16 | < 100 nM | Cc1nc2nc(N3C[C@@H](C)O[C@@H](c4cnn(C5CC5)c4)C3)nc(-c3ccc(F)cc3F)c2cc1C1=NCCO1 [Example 7, (2S,6R)-2-(1-cyclopropylpyrazol-4-yl)-4-[4-(2,4-difluorophenyl)-6-(4,5-dihydrooxazol-2-yl)-7-methyl-pyrido[2,3-d]pyrimidin-2-yl]-6-methyl-morpholine]
17 | > 500 nM | Cc1nc2nc(N3C[C@@H](C)O[C@@H](c4cnn(C5CC5)c4)C3)nc(C34CC(C(F)(F)F)(C3)C4)c2nc1C1CN(C(=O)OC(C)(C)C)C1 [Example 86, tert-butyl 3-[2-[(2S,6R)-2-(1-cyclopropylpyrazol-4-yl)-6-methyl-morpholin-4-yl]-7-methyl-4-[3-(trifluoromethyl)-1-bicyclo[1.1.1]pentanyl]pteridin-6-yl]azetidine-1-carboxylate]
18 | < 100 nM | Cc1nc2nc(N3C[C@@H](C)O[C@@H](c4cnn(CC(F)F)c4)C3)nc(C34CC(C(F)(F)F)(C3)C4)c2cc1C#N [Example 70, 2-((2S,6R)-2-(1-(2,2-difluoroethyl)-1H-pyrazol-4-yl)-6-methyl-morpholino)-7-methyl-4-(3-(trifluoromethyl)bicyclo[1.1.1]pentan-1-yl)pyrido[2,3-d]pyrimidine-6-carbonitrile]
19 | > 500 nM | CC1Cc2c(nc([C@H]3CCO[C@@H](c4cnn(C5CC5)c4)C3)nc2-c2ccc(C(F)(F)F)cc2F)C(=O)N1C (stereo partly drawn) [Example 138, 2-[(2R,4S)-2-(1-cyclopropylpyrazol-4-yl)tetrahydropyran-4-yl]-4-[2-fluoro-4-(trifluoromethyl)phenyl]-6,7-dimethyl-5,6-dihydropyrido[3,4-d]pyrimidin-8-one formic acid]
20 | < 100 nM | Cc1nc2nc(C3CCOC(c4ccn5nccc5c4)C3)nc(C34CC(C(F)(F)F)(C3)C4)c2nc1C (stereo not drawn) [Example 109, 6,7-dimethyl-2-(2-pyrazolo[1,5-a]pyridin-5-yltetrahydropyran-4-yl)-4-[3-(trifluoromethyl)-1-bicyclo[1.1.1]pentanyl]pteridine]
21 | 100 to 500 nM | Cc1nc2nc(N3C[C@@H](C)O[C@@H](c4cnn(C5CC5)c4)C3)nc(C3CCC3)c2cc1C#N [Example 42, 4-cyclobutyl-2-((2S,6R)-2-(1-cyclopropyl-1H-pyrazol-4-yl)-6-methylmorpholino)-7-methylpyrido[2,3-d]pyrimidine-6-carbonitrile]
22 | 100 to 500 nM | Cc1nc2nc(N3C[C@@H](C)O[C@@H](c4cnn(C5CC5)c4)C3)nc(-c3ccncc3F)c2nc1C [Example 96, (2S,6R)-2-(1-cyclopropylpyrazol-4-yl)-4-[4-(3-fluoro-4-pyridyl)-6,7-dimethylpteridin-2-yl]-6-methyl-morpholine]
23 | < 100 nM | Cc1nc2nc(N3C[C@@H](C)O[C@@H](c4cnn(C5CC5)c4)C3)nc(-c3ccc(F)cc3F)c2cc1C#N [Example 21, 2-[(2S,6R)-2-(1-cyclopropylpyrazol-4-yl)-6-methyl-morpholin-4-yl]-4-(2,4-difluorophenyl)-7-methyl-pyrido[2,3-d]pyrimidine-6-carbonitrile]
24 | < 100 nM | Cc1nc2nc(C3CCOC(c4ccc5nccn5c4)C3)nc(-c3ccc(F)cc3F)c2nc1C (stereo not drawn) [Example 94, 4-(2,4-difluorophenyl)-2-(2-imidazo[1,2-a]pyridin-6-yltetrahydropyran-4-yl)-6,7-dimethyl-pteridine]
